US8410046B2, “Antibiotic peptide derived from ribosomal protein L1 of Helicobacter pylori and use thereof” (Industry-Academic Cooperation Foundation, Chosun University, priority 2008, dated 2013)
“Also recorded” adds a separate entry of the source. Read-outs that look alike come from different tables or passages of the source. Where no end group is shown, it is not given here.

What was measured:
Format in all cases: cell-based
[1] = system: Proteus vulgaris (KCTC 2433); assay: MIC, antimicrobial activity (microtitrate plate, absorbance 620 nm); settings: Gram negative bacterium; 6 hours at 37° C.
From the text: (§1) The present inventors measured MIC, which is the minimum concentration of not divided bacterial cell, in order to compare the antimicrobial activity of the peptide prepared by the method of <experimental example 1>.
(§2) More specifically, the present inventors used Escherichia coli, Pseudomonas aeruginosa, Proteus vulgaris, Salmonella typhimurium as a Gram negative bacterium and used Staphylococcus aureus, Listeria monocytogenes, Staphylococcus epidermidis, Bacillus subtilis as a Gram positive bacterium. In addition, Escherichia coli (ATCC 25922), Listeria monocytogenes (ATCC 19115), and Staphylococcus aureus (ATCC 25923) were provided by “American Type Culture Collection” and Bacillus subtilis (KCTC 1918), […] (KCTC 3096), Pseudomonas aeruginosa (KCTC 1637) and Proteus vulgaris (KCTC 2433) were provided by “Korean Collection for Type Cultures”. After culturing each strain by up to mid-log phase in LB medium (1% Bacto tryptone, 0.5% extraction of Bacto yeast, 1% sodium chloride; Sigma, USA) and diluting it by the bacterial cell concentration of 1×10^4 cell/100 μl with 1% Bacto pepton medium (Difco, USA), they inoculated the strain to Microtitrate Plate (Nunc, USA). The present inventors added both the peptide of the present invention (experimental group 1 and 2) synthesized in the <experimental example 1> and maternal peptide(control group) into the plate after diluting separately by 1/2 times from 25 μM/well, and cultured them for 6 hours at 37° C. In addition, they measured absorbance under 620 nm of wavelength using Microtitrate Plate reader (Merck Elisa reader, Germany) and determined the MIC value of each strain, after then they described the final result in the following Table 2.

[2] = system: Listeria monocytogenes (ATCC 19115); assay: as above; settings: Gram positive bacterium; 6 hours at 37° C.
From the text: as §1, §2

[3] = system: Staphylococcus epidermidis; assay: as above; settings: Gram positive bacterium; 6 hours at 37° C.
From the text: as §1, §2

[4] = system: Escherichia coli (ATCC 25922); assay: as above; settings: Gram negative bacterium; 6 hours at 37° C.
From the text: as §1, §2

Salmonella typhimurium = assay: as above; settings: Gram negative bacterium; 6 hours at 37° C.
From the text: as §1, §2

[5] = system: Staphylococcus aureus (ATCC 25923); assay: as above; settings: Gram positive bacterium; 6 hours at 37° C.
From the text: as §1, §2

[6] = system: Pseudomonas aeruginosa (KCTC 1637); assay: as above; settings: Gram negative bacterium; 6 hours at 37° C.
From the text: as §1, §2

human erythrocyte = assay: Erythrocyte hemolytic activity; settings: for hemolytic activity (result in words): human erythrocyte, by the concentration of 200 μM; for % Hemolysis: 8% human erythrocyte in PBS pH 7.0, 1 hour, 1% triton X-100 = 100%
Description: Firstly, the present inventors diluted human erythrocyte with phosphate buffer (PBS, pH 7.0) to be a 8% concentration and then, they diluted each described peptide comprising the amino acid sequence of SEQ. ID. NO: 1 to 3 in the Table 1 continually at the 1/2 concentration starting from 200 μM and make them reacted for 1 hour at 37. After then, the present inventors measured the amount of hemoglobin included in the supernatant obtained by centrifugating it with 1,000 g and the absorbance under the 414 nm of wavelength of the supernatant. In order to investigate relative level a comparative study of cytotoxicity, they measured the absorbance of supernatant with adding 1% triton X-100 (sigma, USA) to the human erythrocyte cell. Making the cytotoxicity of 1% triton X-100 to become a 100%, the present inventors calculated hemolysis of the peptides (experimental group 1 and 2) and maternal peptides (control group) of the present invention according to the following mathematical formula.
In the mathematical formula, absorbance A means the absorbance of the peptide solution under the 414 nm of wavelength, absorbance B means the absorbance of PBS under the 414 nm of wavelength and absorbance C means the absorbance of 1% triton X-100 under the 414 nm of wavelength.

NIH3T3 cell line = assay: Cytotoxicity in the normal cell line (MTT)
Description: (§3) In order to confirm the cytotoxicity in the normal cell line, which was prepared by the <experimental example 1>, the present inventors measured the cytotoxicity using HaCaT cell line (Dr. N E. Fusenig, Heidelberg, Germany) and NIH3T3 cell line (ATCC(CRL-1658™)).
(§4) Specifically, they inject HaCaT cell line and NIH3T3 cell line, which were cultured in DMEM badge including 10% FBS (Fetal Bovine Serum), into 96-well plate with 3×10^3 each and cultured them for 24 hours, after then, they treated the peptides prepared by the <experimental example> to the HaCaT cell line and NIH3T3 cell line according to the concentration respectively and reacted them in the 5% CO2 incubator for 24 hours. After culturing, they put 20 ul of MTT (Thiazolyl Blue Tetrazolium Bromide) solution (5 mg/ml in PBS), into each well and reacted them four hours. And they removed supernatant and melted MTT crystal prepared by adding 200 ul of DMSO, and then they studied the result at 560 nm.

HaCaT cell line = assay: Cytotoxicity in the normal cell line (MTT)
Description: as §3, §4

[7] = system: Bacillus subtilis (KCTC 1918); settings: Gram positive bacterium; 6 hours at 37° C.
From the text: as §1, §2

[8] = NIH3T3 cell line, 24 hours, MTT

| Substance | MIC Proteus vulgaris [1] [µM] | MIC Listeria monocytogenes [2] [µM] | MIC Staphylococcus epidermidis [3] [µM] | MIC Escherichia coli [4] [µM] | MIC Salmonella typhimurium (Salmonella typhimurium) [µM] | MIC Staphylococcus aureus [5] [µM] | MIC Pseudomonas aeruginosa [6] [µM] | hemolytic activity (result in words) (human erythrocyte) | % Hemolysis (human erythrocyte; peptide 3.13 μM) [%] | % Hemolysis (human erythrocyte; peptide 6.25 μM) [%] | % Hemolysis (human erythrocyte; peptide 12.5 μM) [%] | % Hemolysis (human erythrocyte; peptide 25 μM) [%] | % Hemolysis (human erythrocyte; peptide 50 μM) [%] | % Hemolysis (human erythrocyte; peptide 100 μM) [%] | % Hemolysis (human erythrocyte; peptide 200 μM) [%] | cytotoxicity (result in words, FIG. 2) (NIH3T3 cell line) | cytotoxicity (result in words, FIG. 1) (HaCaT cell line) | MIC Bacillus subtilis [7] [µM] | cytotoxicity (result in words, FIG. 2) (NIH3T3 cell line; [8]) | cytotoxicity (result in words, FIG. 1) (HaCaT cell line; HaCaT cell line, 24 hours, MTT) |
| --- | --- | --- | --- | --- | --- | --- | --- | --- | --- | --- | --- | --- | --- | --- | --- | --- | --- | --- | --- | --- |
| AKRLKKLAKKIWKWK-NH2 [NT3-F1AF8A-A2, AKRLKKLAKKIWKWK-NH2] | 2 to 4 | 2 | 2 to 4 | 4 | 1 to 2 | 4 | 2 | no hemolytic activity | 0 | 0 | 0 | 0 | 0 | 0 | 0 | little cytotoxicity | little cytotoxicity | 2 | – | – |
| FKRLKKLFKKIWNWK-NH2 [HPA3NT3, FKRLKKLFKKIWNWK-NH2, reference compound] | 8 | 2 | 2 to 4 | 4 | 2 | 2 | 2 | – | 0 | 0 | 0 | 0 | 7.12 | 11.35 | 37.23 | – | – | 2 | high cytotoxicity | high cytotoxicity |
| AKRLKKLAKKIWNWK-NH2 [NT3-F1AF8A, AKRLKKLAKKIWNWK-NH2] | 4 | 2 | 16 | 16 to 32 | 2 | 4 to 8 | 2 | no hemolytic activity; also recorded: did not generate hemolytic phenomenon | 0 | 0 | 0 | 0 | 0 | 0 | 0 | – | – | 4 | little cytotoxicity | little cytotoxicity |
